Values joined by “and” are separate entries in the source; they are usually repeats but may differ in a detail not shown here. Identical values can stand only once.
How the values were obtained:
HT‐29 = HT‐29 colon cancer xenograft in NMRI nu/nu mice; assay type: in vivo, mouse; settings: end of study day 39
Description: Mouse experiments were approved by the relevant regulatory agency of the federal state of Berlin (Landesamt für Gesundheit und Soziales Berlin, approval number G0221/03). Mice were maintained in individually ventilated cages in groups of four mice per cage. They received autoclaved food and bedding (Ssniff, Soest, Germany) and acidified (pH 4.0) tap water ad libitum. The animal facility was equipped with an automatic 12 h light/dark regulation, temperature regulation at 22 ± 2°C, and relative humidity of 50 ± 10%. Female NMRI nu/nu mice (purchased from Charles River, Sulzfeld, Germany) were inoculated with 1 × 10^7 MDA‐MB‐231 or HT‐29 cells, which were allowed to grow subcutaneously to a palpable size of approximately 60–100 mm^3. […] All administrations were performed in the morning, without anesthesia. Tumor volume was determined twice per week using caliper measurements, and the volume was calculated using the formula (D × d^2)/2, with d defined as the minor axis and D as the major axis of the measurement. Tumor growth inhibition was calculated as relative tumor volume in relation to the first treatment day.
Changes in tumor volume were statistically evaluated by two‐way repeated‐measures analysis of variance, followed by Bonferroni correction, using GraphPad Prism 5 (San Diego, CA), and P < 0.05 was regarded as significant. Additionally, body weight of all mice was determined twice weekly, and the health status of the animals, including behavioral changes, was recorded daily.

[1] = system: EGFR family kinases, the protein kinase C family, insulin and insulin‐like growth factor receptor kinases, MET, MEK family kinases (with the exception of …); test: KINOMEscan active-site competitive binding assay, kinases not inhibited; settings: concentrations up to 1 μmol/L; data not shown
LOK = target: T1, LOK (Homo sapiens, UniProt O94804); test: KINOMEscan active-site competitive binding assay; settings: slash = two separate measurements
T1 construct: purchased DiscoveRx (KINOMEscan service)

HIPK4 = target: T2, HIPK4 (Homo sapiens, UniProt Q8NE63); test: KINOMEscan active-site competitive binding assay; settings: slash = two separate measurements
T2 construct: purchased DiscoveRx (KINOMEscan service)
T2 sequence (Q8NE63 1-616): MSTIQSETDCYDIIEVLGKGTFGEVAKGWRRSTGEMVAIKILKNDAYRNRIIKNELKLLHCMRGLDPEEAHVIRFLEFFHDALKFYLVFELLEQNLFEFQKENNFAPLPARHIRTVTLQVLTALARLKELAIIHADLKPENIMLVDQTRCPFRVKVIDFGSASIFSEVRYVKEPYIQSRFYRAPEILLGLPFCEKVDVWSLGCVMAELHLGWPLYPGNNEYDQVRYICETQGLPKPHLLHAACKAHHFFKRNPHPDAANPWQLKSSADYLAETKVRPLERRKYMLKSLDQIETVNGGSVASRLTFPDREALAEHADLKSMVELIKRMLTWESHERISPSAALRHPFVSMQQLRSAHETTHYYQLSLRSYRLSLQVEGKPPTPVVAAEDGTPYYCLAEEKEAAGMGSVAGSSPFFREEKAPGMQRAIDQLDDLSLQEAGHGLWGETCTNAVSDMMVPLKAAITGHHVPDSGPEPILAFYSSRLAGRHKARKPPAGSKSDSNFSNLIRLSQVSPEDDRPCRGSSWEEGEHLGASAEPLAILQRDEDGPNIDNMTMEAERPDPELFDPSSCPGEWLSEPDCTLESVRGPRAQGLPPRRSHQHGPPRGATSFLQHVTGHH

p38-alpha = target: T3, p38-alpha (Homo sapiens, UniProt Q16539); test: KINOMEscan active-site competitive binding assay; settings: slash = two separate measurements
T3 construct: purchased DiscoveRx (KINOMEscan service)

YSK4 = target: T4, YSK4 (Homo sapiens, UniProt Q56UN5); test: KINOMEscan active-site competitive binding assay; settings: slash = two separate measurements
T4 construct: purchased DiscoveRx
T4 sequence (Q56UN5 1-1328): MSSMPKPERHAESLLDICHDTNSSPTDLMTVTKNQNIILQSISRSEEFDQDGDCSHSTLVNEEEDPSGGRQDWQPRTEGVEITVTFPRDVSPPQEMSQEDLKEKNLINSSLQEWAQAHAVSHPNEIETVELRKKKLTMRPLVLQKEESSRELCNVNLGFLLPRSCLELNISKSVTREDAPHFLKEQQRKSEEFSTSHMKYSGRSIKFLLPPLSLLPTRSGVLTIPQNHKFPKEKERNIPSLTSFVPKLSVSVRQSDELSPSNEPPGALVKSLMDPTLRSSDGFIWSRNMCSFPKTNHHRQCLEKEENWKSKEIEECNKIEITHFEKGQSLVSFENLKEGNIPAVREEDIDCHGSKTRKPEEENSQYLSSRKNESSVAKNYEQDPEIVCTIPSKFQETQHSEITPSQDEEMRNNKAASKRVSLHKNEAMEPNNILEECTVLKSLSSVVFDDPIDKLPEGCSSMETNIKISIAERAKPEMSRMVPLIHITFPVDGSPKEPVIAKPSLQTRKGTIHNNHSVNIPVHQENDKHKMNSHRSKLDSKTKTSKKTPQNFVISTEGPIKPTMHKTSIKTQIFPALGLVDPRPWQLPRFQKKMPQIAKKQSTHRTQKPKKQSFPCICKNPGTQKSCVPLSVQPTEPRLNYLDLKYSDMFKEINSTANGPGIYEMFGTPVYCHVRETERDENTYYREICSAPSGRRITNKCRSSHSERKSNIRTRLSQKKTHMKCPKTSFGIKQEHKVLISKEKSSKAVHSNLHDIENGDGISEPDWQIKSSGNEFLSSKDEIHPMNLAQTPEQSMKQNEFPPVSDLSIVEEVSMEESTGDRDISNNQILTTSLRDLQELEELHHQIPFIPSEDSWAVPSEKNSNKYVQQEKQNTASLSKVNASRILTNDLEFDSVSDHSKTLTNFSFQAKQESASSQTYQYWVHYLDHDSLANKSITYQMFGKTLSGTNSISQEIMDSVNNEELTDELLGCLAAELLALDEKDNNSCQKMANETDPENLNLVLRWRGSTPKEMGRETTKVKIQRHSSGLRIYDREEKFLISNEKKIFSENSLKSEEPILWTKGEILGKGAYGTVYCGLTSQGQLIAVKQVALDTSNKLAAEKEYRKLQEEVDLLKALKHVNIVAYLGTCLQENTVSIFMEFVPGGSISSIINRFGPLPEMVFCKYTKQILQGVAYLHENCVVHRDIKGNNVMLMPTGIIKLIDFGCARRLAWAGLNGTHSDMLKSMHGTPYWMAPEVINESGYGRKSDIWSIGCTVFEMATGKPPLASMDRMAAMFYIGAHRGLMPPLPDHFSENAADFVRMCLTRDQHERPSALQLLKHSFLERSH

T3 sequence (Q16539 whole entry): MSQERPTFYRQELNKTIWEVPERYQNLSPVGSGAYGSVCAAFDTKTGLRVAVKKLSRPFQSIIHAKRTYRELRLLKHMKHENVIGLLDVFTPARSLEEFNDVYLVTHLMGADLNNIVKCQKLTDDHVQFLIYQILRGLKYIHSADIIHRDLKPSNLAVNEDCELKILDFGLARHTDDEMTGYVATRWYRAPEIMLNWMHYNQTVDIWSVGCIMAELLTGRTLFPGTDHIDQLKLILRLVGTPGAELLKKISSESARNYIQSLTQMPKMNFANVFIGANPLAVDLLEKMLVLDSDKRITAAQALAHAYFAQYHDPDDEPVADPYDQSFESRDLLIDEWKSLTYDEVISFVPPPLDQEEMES
T1 sequence (O94804 whole entry): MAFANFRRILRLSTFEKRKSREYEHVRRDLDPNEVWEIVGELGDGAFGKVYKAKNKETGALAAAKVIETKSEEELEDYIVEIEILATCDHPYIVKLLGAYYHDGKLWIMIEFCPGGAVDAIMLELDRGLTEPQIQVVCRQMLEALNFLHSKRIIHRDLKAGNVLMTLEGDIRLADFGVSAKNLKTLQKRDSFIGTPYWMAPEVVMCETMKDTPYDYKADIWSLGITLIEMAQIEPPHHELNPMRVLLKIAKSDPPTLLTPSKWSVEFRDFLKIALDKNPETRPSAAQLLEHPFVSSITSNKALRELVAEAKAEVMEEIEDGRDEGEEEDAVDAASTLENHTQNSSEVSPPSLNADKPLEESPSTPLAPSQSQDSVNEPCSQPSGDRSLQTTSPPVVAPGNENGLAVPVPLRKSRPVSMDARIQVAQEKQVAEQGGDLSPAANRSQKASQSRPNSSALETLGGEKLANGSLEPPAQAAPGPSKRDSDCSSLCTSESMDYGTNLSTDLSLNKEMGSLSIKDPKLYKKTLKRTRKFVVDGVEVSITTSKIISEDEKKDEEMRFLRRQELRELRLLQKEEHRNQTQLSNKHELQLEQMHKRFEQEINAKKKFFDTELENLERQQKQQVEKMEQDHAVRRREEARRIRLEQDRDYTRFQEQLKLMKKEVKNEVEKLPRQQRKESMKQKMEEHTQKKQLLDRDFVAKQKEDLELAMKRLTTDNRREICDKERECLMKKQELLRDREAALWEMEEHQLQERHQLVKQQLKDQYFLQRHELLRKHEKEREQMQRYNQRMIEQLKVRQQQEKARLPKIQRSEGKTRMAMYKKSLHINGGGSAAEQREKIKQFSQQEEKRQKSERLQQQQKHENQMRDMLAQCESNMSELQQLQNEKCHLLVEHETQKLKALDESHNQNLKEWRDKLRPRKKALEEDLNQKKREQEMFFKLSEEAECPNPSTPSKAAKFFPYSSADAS

SMILES | Tumor growth inhibition (%) (HT‐29; 3 mg/kg/day oral for 27 days) | Tumor growth inhibition (%) (HT‐29; 10 mg/kg/day oral for 27 days) | Inhibition of binding [1] | Kd (LOK) | Kd (HIPK4) | Kd (p38-alpha) | Kd (YSK4)
CNC(=O)c1cc(Oc2ccc(NC(=O)Nc3ccc(Cl)c(C(F)(F)F)c3)c(F)c2)ccn1 [Regorafenib, reference compound] | 34 | 67 | No inhibition | 15 nM and 10 nM | 6.9 nM and 4.5 nM | 58 nM and 48 nM | 38 nM and 94 nM
NC(=O)c1cc(Oc2ccc(NC(=O)Nc3ccc(Cl)c(C(F)(F)F)c3)c(F)c2)cc[n+]1[O-] [M‐5] | 13 | 66 | No inhibition | 11 nM | 26 nM | 48 nM | 70 nM
CNC(=O)c1cc(Oc2ccc(NC(=O)Nc3ccc(Cl)c(C(F)(F)F)c3)c(F)c2)cc[n+]1[O-] [M‐2] | 35 | 59 | No inhibition | 9.3 nM | 15 nM | 17 nM | 55 nM

From article PMC5119973 (Cancer Medicine, 2016)
